Data taken from ChEMBL document CHEMBL1201862, “PubChem BioAssay data set” (2004).
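Method: 48-hour compound exposure of cells in 96-well plates, five concentrations, linear interpolation of endpoints. GI50: concentration for 50% inhibition of growth.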 Active and inactive are the calls of the source. No stated cut-off is given here; in the data, active = GI50 up to about 1.1 µM and inactive = higher.

Tests used:
Test in all cases: NCI-60 cell line screen, 48 h
[1] = tested on: UACC-257
[2] = tested on: DU-145
[3] = tested on: K562
[4] = tested on: MOLT-4
[5] = tested on: EKVX
[6] = tested on: MDA-N
[7] = tested on: SK-MEL-5
[8] = tested on: IGROV-1
[9] = tested on: HL-60
[10] = tested on: SN12C
[11] = tested on: HCT-116
[12] = tested on: SK-MEL-2
[13] = tested on: 786-0
[14] = tested on: NCI-H460
[15] = tested on: COLO 205
[16] = tested on: BT-549
[17] = tested on: OVCAR-5
[18] = tested on: PC-3
[19] = tested on: OVCAR-4
[20] = tested on: MCF7
[21] = tested on: UO-31
[22] = tested on: NCI-H226
[23] = tested on: A549
[24] = tested on: SF-539
[25] = tested on: NCI-H522
[26] = tested on: HOP-62
[27] = tested on: SK-OV-3
[28] = tested on: HOP-92
[29] = tested on: SNB-19
[30] = tested on: T47D
[31] = tested on: SK-MEL-28
[32] = tested on: CAKI-1
[33] = tested on: A498
[34] = tested on: MDA-MB-231
[35] = tested on: U-251
[36] = tested on: OVCAR-8
[37] = tested on: HCC 2998
[38] = tested on: RPMI-8226
[39] = tested on: OVCAR-3
[40] = tested on: SNB-75
[41] = tested on: ACHN
[42] = tested on: MDA-MB-435
[43] = tested on: SW-620
[44] = tested on: TK-10
[45] = tested on: NCI/ADR-RES
[46] = tested on: SF-295
[47] = tested on: KM12
[48] = tested on: SF-268
[49] = tested on: Hs-578T
[50] = tested on: M14
[51] = tested on: HT-29
[52] = tested on: NCI-H23
[53] = tested on: UACC-62
[54] = tested on: SR
[55] = tested on: RXF 393
[56] = tested on: HCT-15
[57] = tested on: LOX IMVI
[58] = tested on: CCRF-CEM

Measured: GI50

CCOC(=O)N1CCN(c2nc(C)n(-c3ccccc3)c(=S)c2C#N)CC1
> 55.6 µM: [56]
inactive: [1] > 86.9 µM | [2] > 90.4 µM | [3] > 50 µM | [4] > 40.1 µM | [5] > 82.2 µM | [6] > 50 µM | [7] > 100 µM | [8] 32.4 µM | [9] > 28.7 µM | [10] > 100 µM | [11] > 68.2 µM | [12] > 76.4 µM | [13] 42.8 µM | [14] 52.7 µM | [15] > 100 µM | [16] > 51.9 µM | [17] > 100 µM | [18] > 43.4 µM | [19] 44.1 µM | [20] > 48.9 µM | [21] > 48 µM | [22] > 61.8 µM | [23] 97.9 µM | [24] > 83.4 µM | [25] > 34.9 µM | [26] > 75.5 µM | [27] > 82.2 µM | [28] > 65.9 µM | [29] > 78.2 µM | [30] > 100 µM | [31] 61 µM | [32] > 66.4 µM | [33] > 100 µM | [34] 23.4 µM | [35] 75.3 µM | [36] 50.2 µM | [37] > 100 µM | [38] > 62.7 µM | [39] > 75 µM | [40] 37.2 µM | [41] > 65 µM | [42] > 74.6 µM | [43] > 63.4 µM | [44] > 81.1 µM | [45] 30 µM | [46] > 66.4 µM | [47] > 83.8 µM | [48] 63.1 µM | [49] 34.3 µM | [50] > 91 µM | [51] > 100 µM | [52] > 54 µM | [53] > 43.6 µM | [54] > 100 µM | [55] > 95.9 µM | [57] > 61.9 µM | [58] > 23.4 µM
